Source: publication PMC4648589, “Selection of an HLA-C*03:04-Restricted HIV-1 p24 Gag Sequence Variant Is Associated with Viral Escape from KIR2DL3+ Natural Killer Cells: Data from an Observational Cohort in South Africa” (PLoS Medicine, 2015)
“And” between values parts separate entries of the source, which are not always exact repeats. Identical values can stand only once.

What was measured:
[1] = tested on: primary KIR2DL3− NK cells; test: Primary NK cell degranulation (CD107a) against peptide-pulsed 721.221-ICP47-C*03:04 cells, KIR2DL3− subset; type: cell-based, human; conditions: % CD107a+ NK cells divided by % with GKL control peptide; effector:target 1:5, 6 h at 26°C; mean ± SEM, nine donors
Experimental: (§1) To determine activation of primary NK cells following exposure to target cells pulsed with different peptide variants, NK cell degranulation assays measuring CD107a expression were performed using freshly isolated and purified NK cells from nine healthy KIR2DL3+ individuals. Primary NK cells were isolated by incubating whole blood with RosetteSep Human NK Cell Enrichment Cocktail (Stemcell Technologies) for 20 min at room temperature, followed by Histopaque-1077 (Sigma) density gradient centrifugation. NK cells were rested overnight in RPMI medium 1640 (Sigma-Aldrich) supplemented with 10% heat-inactivated fetal calf serum (Sigma-Aldrich), 2,500 U/ml penicillin, 2,500 μg/ml streptomycin, […] L-glutamine (Cellgro), and 1.0 ng/ml IL-15 (Cellgro). Subsequently, NK cells (1 × 10^5) were co-incubated with peptide-pulsed 721.221-ICP47-C*03:04 cells (5 × 10^5) at an effector:target ratio of 1:5 in RPMI containing anti-human CD107a-PE-Cy7 (12.5 μl/ml) and monensin (1.5 μl/ml, BD GolgiStop). Cells were incubated for 6 h at 26°C in 5% CO2. Cells were stained with 7AAD, anti-CD3-PB, anti-CD16-BV785, anti-CD56-BV605, anti-CD14/19-BV510, anti-KIR2DL2/3-PE, and anti-KIR2DL3-APC, washed, fixed with 4% (w/v in PBS) paraformaldehyde (Affymetrix), and analyzed by multiparameter flow cytometry using a BD LSR II.
Flow cytometry data were analyzed using FlowJo software version 10.0.6 (Tree Star), and statistical analysis was performed using GraphPad Prism 6 (GraphPad Software). HLA stabilization values are shown as mean relative fluorescence intensity; error bars represent standard deviation (SD). Relative fluorescence intensity was calculated by dividing the geometric mean fluorescence intensity (gMFI) of HLA expression in the presence of the tested peptide by the gMFI of stained target cells without peptide added in each respective assay. Binding of KIR2DL3-Fc is represented as percent of KIR2DL3+ cells ± SD. […]

[2] = target: HLA-C*03:04 (Homo sapiens, UniProt P10321, A176E/A330V/A97T/C25G/C350S/D114A/D33Y/E197K/L119I/L127V/L171W/L218V/M285V/M309V/M331V/P208H/Q277E/Q291P/R243W/R45H/S123Y/S140Y/S297R/S48A/T118I/T187L/T329A/T363A/V319A); test: HLA-C*03:04 stabilization assay on peptide-pulsed TAP-blocked 721.221-ICP47-C*03:04 cells (W6/32 staining, flow cytometry); type: cell-based; conditions: for HLA-C*03:04 stabilization, mean relative fluorescence intensity (RFI): 100 μM peptide (saturating), 20 h at 26°C, gMFI with peptide divided by gMFI without peptide, mean ± SD of five experiments; for HLA-C*03:04 stabilization, mean relative fluorescence intensity, titration: serial peptide dilutions, non-saturating levels; for HLA-C*03:04 stabilization, mean relative fluorescence intensity, titration / HLA-C*03:04 stabilization, mean relative fluorescence intensity: mean ± SD; for HLA-C*03:04 stabilization, mean relative fluorescence intensity: n = 3
[3] = tested on: primary KIR2DL3+ NK cells; test: Primary NK cell degranulation (CD107a) against peptide-pulsed 721.221-ICP47-C*03:04 cells, KIR2DL3+ subset; type: cell-based, human; conditions: for Relative degranulation of KIR2DL3+ NK cells (CD107a): % CD107a+ NK cells divided by % with GKL control peptide, effector:target 1:5, 6 h at 26°C, mean ± SEM, nine donors; for KIR2DL3+ NK Cell Activity (Mean ± SEM): ratio of percent CD107a+ KIR2DL3+ NK cells with variant peptide to that with wild-type peptide
Experimental: as §1
Flow cytometry data were analyzed using FlowJo software version 10.0.6 (Tree Star), and statistical analysis was performed using GraphPad Prism 6 (GraphPad Software). HLA stabilization values are shown as mean relative fluorescence intensity; error bars represent standard deviation (SD). Relative fluorescence intensity was calculated by dividing the geometric mean fluorescence intensity (gMFI) of HLA expression in the presence of the tested peptide by the gMFI of stained target cells without peptide added in each respective assay. Binding of KIR2DL3-Fc is represented as percent of KIR2DL3+ cells ± SD. […] A repeated-measures one-way ANOVA was subsequently performed to compare the responses between the wild-type group and the groups of the two variant peptides, for the KIR2DL3+ and KIR2DL3− NK cells, respectively. This was followed by a Tukey’s post hoc test. Each individual was sampled one time.

[4] = target: T1, KIR2DL3 (Homo sapiens, UniProt P43628); test: KIR2DL3-Fc binding to peptide-pulsed 721.221-ICP47-C*03:04 cells (flow cytometry); conditions: for KIR2DL3-Fc binding, percent of cells binding KIR2DL3-Fc: cells pulsed with 100 μM peptide for 20 h, 2.5 μg KIR2DL3-Fc, 1 h on ice, mean ± SD of six independent experiments; for KIR2DL3-Fc Binding (Mean ± SD): ratio of percent KIR2DL3-Fc binding of variant peptide to that of wild-type peptide TGag303
T1 construct: purchased R&D Systems (KIR2DL3-Fc); Immudex (HLA-C*03:04/peptide monomers)
T1 sequence (P43628 with tags, fused parts or gaps limits assumed): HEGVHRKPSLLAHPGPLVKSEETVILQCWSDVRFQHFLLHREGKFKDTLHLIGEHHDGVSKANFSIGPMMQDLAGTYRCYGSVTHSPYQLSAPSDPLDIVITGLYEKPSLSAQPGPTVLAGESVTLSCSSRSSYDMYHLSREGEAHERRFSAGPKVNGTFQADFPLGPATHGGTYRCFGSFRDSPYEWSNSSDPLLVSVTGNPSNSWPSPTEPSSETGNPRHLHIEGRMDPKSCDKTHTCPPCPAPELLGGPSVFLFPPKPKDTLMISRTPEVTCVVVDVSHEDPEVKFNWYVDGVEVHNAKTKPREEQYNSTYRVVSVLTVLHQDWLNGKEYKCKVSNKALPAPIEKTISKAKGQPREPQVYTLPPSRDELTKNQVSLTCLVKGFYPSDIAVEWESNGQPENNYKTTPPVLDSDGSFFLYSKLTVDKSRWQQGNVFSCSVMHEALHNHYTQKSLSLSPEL

[5] = target: biotinylated HLA-C*03:04 monomer refolded with … (human | not stated | HIV-1 clade C); test: SPR; Biacore 3000; […]) 10 μg/ml in PBS, 60 μl at 20 μl/min; HBS-EP; 25°C; […]
[6] = 0.1 μM peptide (non-saturating)

Chain of recombinant human KIR2DL3-IgG-Fc chimera (P43628 22-245, change not shown): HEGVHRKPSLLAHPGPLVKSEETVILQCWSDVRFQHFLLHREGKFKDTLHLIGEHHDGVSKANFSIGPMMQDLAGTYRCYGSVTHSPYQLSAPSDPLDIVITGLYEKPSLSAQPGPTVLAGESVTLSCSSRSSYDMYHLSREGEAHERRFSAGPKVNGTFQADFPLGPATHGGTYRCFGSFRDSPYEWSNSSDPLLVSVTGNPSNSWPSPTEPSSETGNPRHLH

Row | Substance | Relative degranulation of KIR2DL3− NK cells (CD107a) [1] | HLA-C*03:04 stabilization, mean relative fluorescence intensity (RFI) [2] | HLA-C*03:04 stabilization, mean relative fluorescence intensity, titration [2] | Relative degranulation of KIR2DL3+ NK cells (CD107a) [3] | KIR2DL3-Fc binding, percent of cells binding KIR2DL3-Fc [4] [%] | KIR2DL3+ NK Cell Activity (Mean ± SEM) [3] | KIR2DL3-Fc Binding (Mean ± SD) [4] | HLA-C*03:04 stabilization, mean relative fluorescence intensity [2, 6] | HLA-C*03:04 stabilization, mean relative fluorescence intensity ([2]; 1 μM peptide (non-saturating)) | Kd [5] | KIR2DL3 binding (in words) ([4]; HLA-C*03:04 stabilized at similar levels, used as negative control)
1 | YVDRFFKTL [TGag303] | 1.06 ± 0.04 | 3.24 ± 0.64 | 2.60 ± 1.45 | 0.78 ± 0.07 | 18.01 ± 10.45 | – | – | – | – | – | –
2 | YVDRFFKVL [TGag303V] | 1.04 ± 0.05 | 3.40 ± 0.74 | 2.17 ± 1.36 | 0.63 ± 0.07 | 44.67 ± 14.42 | 0.76 ± 0.08 | 2.74 ± 0.66 | – | – | – | –
3 | YVDRFFKAL [TGag303A] | 1.06 ± 0.04 | 3.17 ± 0.53 | 1.84 ± 0.79 | 0.89 ± 0.05 | 15.46 ± 7.24 | 1.36 ± 0.33 | 0.90 ± 0.17 | – | – | – | –
4 | RALGPAATL | – | – | – | – | – | – | – | 1.29 ± 0.19 | 2.72 ± 0.81 | – | –
5 | recombinant human KIR2DL3-IgG-Fc chimera (from UniProt P43628) (Fc fusion) | – | – | – | – | – | – | – | – | – | 93 nM and 77 nM | –
6 | GAVDPLLKL [GKL, reference compound] | – | – | – | – | – | 1.70 ± 0.3 | 0.06 ± 0.03 | – | – | – | did not allow for KIR2DL3 binding
7 | RALGPGATL | – | – | – | – | – | – | – | 2.26 ± 0.39 | 4.24 ± 0.46 | – | –
